Results from patent publication US8853203B2, “Diazepinone derivatives” (Novartis AG, priority 2012, dated 2014).

Assays:
human mGluR5a receptors = human mGluR5a receptors (Homo sapiens (Human), UniProt P41594); assay: inhibition of glutamate-induced elevation of intracellular calcium in L(tk-) cells expressing human mGluR5a; assay type: cell-based; conditions: for IC50: glutamate-induced intracellular calcium elevation, L(tk-) cells expressing human mGluR5a, read-out: mGluR5 IC50
In short: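 Compounds tested for inhibition of the glutamate-induced rise in intracellular calcium concentration in L(tk-) cells stably expressing human mGluR5a.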

human mGluR1 = human mGluR1 (Homo sapiens (Human), UniProt Q13255); assay: mGluR1 antagonism, L-glutamate induced intracellular calcium increase (FLIPR) in CHO cells stably expressing human mGluR1; assay type: cell-based; conditions: L-glutamate induced intracellular calcium, CHO cells expressing human mGluR1, FLIPR
human mGluR1, sequence (Q13255 19-1194): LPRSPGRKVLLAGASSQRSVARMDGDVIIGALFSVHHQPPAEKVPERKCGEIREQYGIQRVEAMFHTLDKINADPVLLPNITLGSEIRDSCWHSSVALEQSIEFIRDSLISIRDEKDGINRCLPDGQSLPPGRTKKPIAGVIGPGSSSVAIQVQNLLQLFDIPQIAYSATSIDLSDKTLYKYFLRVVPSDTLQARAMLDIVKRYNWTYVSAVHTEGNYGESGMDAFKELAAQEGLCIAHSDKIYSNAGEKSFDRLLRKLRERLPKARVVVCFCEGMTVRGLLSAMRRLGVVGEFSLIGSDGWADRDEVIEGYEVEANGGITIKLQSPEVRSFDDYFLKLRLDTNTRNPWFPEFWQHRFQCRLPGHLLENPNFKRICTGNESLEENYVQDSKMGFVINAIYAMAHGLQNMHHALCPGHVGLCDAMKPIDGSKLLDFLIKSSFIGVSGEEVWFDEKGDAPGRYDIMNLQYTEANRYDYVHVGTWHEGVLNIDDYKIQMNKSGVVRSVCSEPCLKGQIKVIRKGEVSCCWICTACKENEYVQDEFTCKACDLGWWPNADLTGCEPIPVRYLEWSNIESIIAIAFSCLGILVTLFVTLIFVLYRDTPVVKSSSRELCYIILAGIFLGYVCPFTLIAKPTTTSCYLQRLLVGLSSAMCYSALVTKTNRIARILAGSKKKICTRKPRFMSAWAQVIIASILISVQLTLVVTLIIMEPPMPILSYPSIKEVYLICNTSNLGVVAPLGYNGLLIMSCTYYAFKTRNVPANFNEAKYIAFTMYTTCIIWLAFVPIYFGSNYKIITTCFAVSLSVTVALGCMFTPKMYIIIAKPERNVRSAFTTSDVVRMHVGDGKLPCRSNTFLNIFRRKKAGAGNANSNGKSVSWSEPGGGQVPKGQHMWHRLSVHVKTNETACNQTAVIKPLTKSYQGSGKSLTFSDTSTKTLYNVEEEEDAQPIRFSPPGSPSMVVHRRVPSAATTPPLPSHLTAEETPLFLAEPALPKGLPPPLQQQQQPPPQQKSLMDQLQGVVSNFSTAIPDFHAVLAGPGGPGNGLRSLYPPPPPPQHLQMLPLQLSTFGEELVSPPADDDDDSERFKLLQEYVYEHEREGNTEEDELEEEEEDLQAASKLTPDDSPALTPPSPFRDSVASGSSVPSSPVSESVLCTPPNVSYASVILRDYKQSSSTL

human mGluR5a receptors, sequence (P41594 other isoform, or with tags, fused parts or gaps): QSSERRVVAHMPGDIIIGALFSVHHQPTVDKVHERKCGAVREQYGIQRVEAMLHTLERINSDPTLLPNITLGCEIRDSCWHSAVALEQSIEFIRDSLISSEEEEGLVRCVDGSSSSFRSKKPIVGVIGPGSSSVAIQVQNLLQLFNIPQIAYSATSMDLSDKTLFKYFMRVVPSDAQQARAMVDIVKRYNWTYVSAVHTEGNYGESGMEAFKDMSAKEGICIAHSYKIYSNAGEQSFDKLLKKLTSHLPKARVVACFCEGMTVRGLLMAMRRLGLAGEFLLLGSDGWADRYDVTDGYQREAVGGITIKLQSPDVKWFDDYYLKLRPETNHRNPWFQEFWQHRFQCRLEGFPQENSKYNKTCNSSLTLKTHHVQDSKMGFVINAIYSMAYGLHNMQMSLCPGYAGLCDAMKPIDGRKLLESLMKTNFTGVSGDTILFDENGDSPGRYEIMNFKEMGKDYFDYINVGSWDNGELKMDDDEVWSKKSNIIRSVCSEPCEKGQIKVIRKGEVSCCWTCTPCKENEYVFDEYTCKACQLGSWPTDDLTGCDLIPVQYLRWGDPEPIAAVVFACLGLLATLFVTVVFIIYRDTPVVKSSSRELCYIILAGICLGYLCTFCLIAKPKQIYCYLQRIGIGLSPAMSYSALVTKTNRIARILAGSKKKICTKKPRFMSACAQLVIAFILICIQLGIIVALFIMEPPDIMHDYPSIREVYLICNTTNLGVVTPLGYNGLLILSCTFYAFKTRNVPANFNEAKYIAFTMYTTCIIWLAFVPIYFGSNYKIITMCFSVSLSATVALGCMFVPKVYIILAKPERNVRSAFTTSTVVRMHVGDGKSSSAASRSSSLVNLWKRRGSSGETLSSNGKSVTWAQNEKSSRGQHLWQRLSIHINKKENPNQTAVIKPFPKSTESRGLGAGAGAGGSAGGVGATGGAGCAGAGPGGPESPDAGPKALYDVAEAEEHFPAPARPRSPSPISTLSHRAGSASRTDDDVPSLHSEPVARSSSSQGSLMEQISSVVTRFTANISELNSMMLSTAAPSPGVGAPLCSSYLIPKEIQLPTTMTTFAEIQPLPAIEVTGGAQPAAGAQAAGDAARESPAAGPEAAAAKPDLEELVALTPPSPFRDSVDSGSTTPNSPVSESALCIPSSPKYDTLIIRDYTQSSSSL

IC50 (human mGluR5a receptors) [nM] | IC50 (human mGluR1) [nM] | inhibition at 2 µM (human mGluR5a receptors; LTK, read-out: mGluR5 % inhibition at 2 μM) [%] | inhibition at 10 µM (human mGluR5a receptors; LTK, read-out: mGluR5 % inhibition at 10 μM) [%] | SMILES
7 | > 10000 | – | – | COc1cc(C2=NCC(=O)N3CCc4c(cccc4-c4ccc(F)nc4)C3=C2)ccn1 [Example 53, 9-(6-fluoropyridin-3-yl)-2-(2-methoxypyridin-4-yl)-7,8-dihydro-[1,4]diazepino[7,1-a]isoquinolin-5(4H)-one]
46 | > 2000 | – | – | O=C1CN=C(n2cnc(COC(F)(F)F)c2)C=C2c3cccc(C4CC4)c3CCN12 [Example 131, 9-cyclopropyl-2-(4-((trifluoromethoxy)methyl)-1H-imidazol-1-yl)-7,8-dihydro-[1,4]diazepino[7,1-a]isoquinolin-5(4H)-one]
271 | > 10000 | – | – | O=C1CN=C(n2cnc(C3CC3)n2)C=C2c3cccc(-c4ncccc4F)c3CCN12 [Example 88c, 2-(3-cyclopropyl-1H-1,2,4-triazol-1-yl)-9-(3-fluoropyridin-2-yl)-7,8-dihydro-[1,4]diazepino[7,1-a]isoquinolin-5(4H)-one]
14 | 2400 | – | – | O=C1CN=C(n2cnc(C3CCC3)c2)C=C2c3cccc(-c4cccnc4F)c3CCN12 [Example 98, 2-(4-cyclobutyl-1H-imidazol-1-yl)-9-(2-fluoropyridin-3-yl)-7,8-dihydro-[1,4]diazepino[7,1-a]isoquinolin-5(4H)-one]
– | > 10000 | 31 | – | O=C1CN=C(n2cnc(C3CC3)c2)C=C2c3cccc(-c4ccc(O)nc4)c3CCN12 [Example 99c, 2-(4-cyclopropyl-1H-imidazol-1-yl)-9-(6-hydroxypyridin-3-yl)-7,8-dihydro-[1,4]diazepino[7,1-a]isoquinolin-5(4H)-one]
16 | > 10000 | – | – | CCc1ncn(C2=NCC(=O)N3CCc4c(cccc4-c4ccc(F)nc4)C3=C2)n1 [Example 102, 2-(3-ethyl-1H-1,2,4-triazol-1-yl)-9-(6-fluoropyridin-3-yl)-7,8-dihydro-[1,4]diazepino[7,1-a]isoquinolin-5(4H)-one]
715 | 1400 | – | – | Cc1cn(C2=NCC(=O)N3CCc4c(I)cccc4C3=C2)c(C)n1 [Example 67, 2-(2,4-dimethyl-1H-imidazol-1-yl)-9-iodo-7,8-dihydro-[1,4]diazepino[7,1-a]isoquinolin-5(4H)-one]
1 | 41 | – | – | O=C1CN=C(n2cnc(CCO)c2)C=C2c3cccc(C4CC4)c3CCN12 [Example 128, 9-cyclopropyl-2-(4-(2-hydroxyethyl)-1H-imidazol-1-yl)-7,8-dihydro-[1,4]diazepino[7,1-a]isoquinolin-5(4H)-one]
595 | 1600 | – | – | Cc1cn(C2=NCC(=O)N3CCc4c(Cl)cccc4C3=C2)cn1 [Example 62, 9-chloro-2-(4-methyl-1H-imidazol-1-yl)-7,8-dihydro-[1,4]diazepino[7,1-a]isoquinolin-5(4H)-one]
– | 6500 | – | 23 | COc1cccc(C2=NCC(=O)N3CCc4c(ccc(OC)c4OC)C3=C2)c1 [Example 59, 9,10-dimethoxy-2-(3-methoxyphenyl)-7,8-dihydro-[1,4]diazepino[7,1-a]isoquinolin-5(4H)-one]
91 | > 10000 | – | – | Cc1nc(-c2cccc3c2CCN2C(=O)CN=C(n4cnc(C5CC5)n4)C=C32)co1 [Example 108a, 2-(3-cyclopropyl-1H-1,2,4-triazol-1-yl)-9-(2-methyloxazol-4-yl)-7,8-dihydro-[1,4]diazepino[7,1-a]isoquinolin-5(4H)-one]
37 | 5900 | – | – | O=C1CN=C(n2cnc(C3CC3)c2)C=C2c3cccc(-c4cccnc4F)c3CCN12 [Example 97, 2-(4-cyclopropyl-1H-imidazol-1-yl)-9-(2-fluoropyridin-3-yl)-7,8-dihydro-[1,4]diazepino[7,1-a]isoquinolin-5(4H)-one]
153 | > 10000 | – | – | Cc1cn(C2=NCC(=O)N3CCc4c(ccc(F)c4-c4cccnc4F)C3=C2)cn1 [Example 99s, 10-fluoro-9-(2-fluoropyridin-3-yl)-2-(4-methyl-1H-imidazol-1-yl)-7,8-dihydro-[1,4]diazepino[7,1-a]isoquinolin-5(4H)-one]
50 | 22 | – | – | C#Cc1cccc2c1CCN1C(=O)CN=C(c3cccs3)C=C21 [Example 38, 9-ethynyl-2-(thiophen-2-yl)-7,8-dihydro-[1,4]diazepino[7,1-a]isoquinolin-5(4H)-one]
100 | 1950 | – | – | O=C1CN=C(n2cnc(C3CC3)c2)C=C2c3cccc(-c4cnccn4)c3CCN12 [Example 88f, 2-(4-Cyclopropyl-1H-Imidazol-1-yl)-9-(pyrazin-2-yl)-7,8-dihydro-[1,4]diazepino[7,1-a]isoquinolin-5(4H)-one]
8 | 226 | – | – | O=C1CN=C(n2cnc(C3CC3)n2)C=C2c3cccc(C4CC4)c3CCN12 [Example 123c, 9-cyclopropyl-2-(3-cyclopropyl-1H-1,2,4-triazol-1-yl)-7,8-dihydro-[1,4]diazepino[7,1-a]isoquinolin-5(4H)-one]
437 | > 10000 | – | – | Cn1ccc(C2=NCC(=O)N3CCc4c(cccc4C(C)(C)O)C3=C2)n1 [Example 27, 9-(2-hydroxypropan-2-yl)-2-(1-methyl-1H-pyrazol-3-yl)-7,8-dihydro-[1,4]diazepino[7,1-a]isoquinolin-5(4H)-one]
3 | 1500 | – | – | COCc1ncn(C2=NCC(=O)N3CCc4c(cccc4C4CC4)C3=C2)n1 [Example 93, 9-cyclopropyl-2-(3-(methoxymethyl)-1H-1,2,4-triazol-1-yl)-7,8-dihydro-[1,4]diazepino[7,1-a]isoquinolin-5(4H)-one]
24 | 2600 | – | – | C=C(C)c1cccc2c1CCN1C(=O)CN=C(n3cnc([C@H](C)OC)c3)C=C21 [Example 119, (S)-2-(4-(1-methoxyethyl)-1H-imidazol-1-yl)-9-(prop-1-en-2-yl)-7,8-dihydro-[1,4]diazepino[7,1-a]isoquinolin-5(4H)-one]
49 | > 10000 | – | – | O=C1CN=C(n2cnc(C3CCC3)c2)C=C2c3cccc(N4CCOCC4)c3CCN12 [Example 70, 2-(4-cyclobutyl-1H-imidazol-1-yl)-9-morpholino-7,8-dihydro-[1,4]diazepino[7,1-a]isoquinolin-5(4H)-one]
28 | > 10000 | – | – | COCCc1cn(C2=NCC(=O)N3CCc4c(cccc4-c4ccc(F)nc4)C3=C2)cn1 [Example 84, 9-(6-fluoropyridin-3-yl)-2-(4-(2-methoxyethyl)-1H-imidazol-1-yl)-7,8-dihydro-[1,4]diazepino[7,1-a]isoquinolin-5(4H)-one]
19 | 560 | – | – | O=C1CN=C(n2cnc(C3CC3)c2)C=C2c3cccc(-c4ccno4)c3CCN12 [Example 100, 2-(4-cyclopropyl-1H-imidazol-1-yl)-9-(isoxazol-5-yl)-7,8-dihydro-[1,4]diazepino[7,1-a]isoquinolin-5(4H)-one]
44 | 15 | – | – | COc1cccc2c1CCN1C(=O)CN=C(c3cccs3)C=C21 [Example 5, 9-methoxy-2-(thiophen-2-yl)-7,8-dihydro-[1,4]diazepino[7,1-a]isoquinolin-5(4H)-one]
2200 | > 10000 | – | – | COc1ccc(C2=NCC(=O)N3CCc4c(OC)cccc4C3=C2)cc1 [Example 17, 9-methoxy-2-(4-methoxyphenyl)-7,8-dihydro-[1,4]diazepino[7,1-a]isoquinolin-5(4H)-one]
345 | 3100 | – | – | COc1cccc2c1CCN1C(=O)CN=C(n3cnc(C(C)C)c3)C=C21 [Example 61, 2-(4-isopropyl-1H-imidazol-1-yl)-9-methoxy-7,8-dihydro-[1,4]diazepino[7,1-a]isoquinolin-5(4H)-one]
16 | 687 | – | – | COCc1cn(C2=NCC(=O)N3CCc4c(C5CC5)ccc(F)c4C3=C2)cn1 [Example 99i, 9-cyclopropyl-12-fluoro-2-(4-(methoxymethyl)-1H-imidazol-1-yl)-7,8-dihydro-[1,4]diazepino[7,1-a]isoquinolin-5(4H)-one]
270 | 2200 | – | – | Cn1cc(C2=NCC(=O)N3CCc4c(CO)cccc4C3=C2)cn1 [Example 46, 9-(hydroxymethyl)-2-(1-methyl-1H-pyrazol-4-yl)-7,8-dihydro-[1,4]diazepino[7,1-a]isoquinolin-5(4H)-one]

SMILES | IC50 (human mGluR5a receptors) [nM] | IC50 (human mGluR1) [nM] | inhibition at 2 µM (human mGluR5a receptors; LTK, read-out: mGluR5 % inhibition at 2 μM) [%] | inhibition at 10 µM (human mGluR5a receptors; LTK, read-out: mGluR5 % inhibition at 10 μM) [%]
COc1cccc(C2=NCC(=O)N3CCc4c(CN(C)C)cccc4C3=C2)c1 [Example 43, 9-((dimethylamino)methyl)-2-(3-methoxyphenyl)-7,8-dihydro-[1,4]diazepino[7,1-a]isoquinolin-5(4H)-one] | 685 | > 10000 | – | –
O=C1CN=C(n2cnc(C3CC3)n2)C=C2c3cccc(-c4ccc(F)nc4)c3CCN12 [Example 95-2, 2-(3-cyclopropyl-1H-1,2,4-triazol-1-yl)-9-(6-fluoropyridin-3-yl)-7,8-dihydro-[1,4]diazepino[7,1-a]isoquinolin-5(4H)-one] | 11 | > 10000 | – | –
COCc1cn(C2=NCC(=O)N3CCc4c(cccc4-c4nccs4)C3=C2)cn1 [Example 71, 2-(4-(methoxymethyl)-1H-imidazol-1-yl)-9-(thiazol-2-yl)-7,8-dihydro-[1,4]diazepino[7,1-a]isoquinolin-5(4H)-one] | 27 | 6400 | – | –
O=C1CN=C(n2cnc(C3CC3)c2)C=C2c3cccc(-c4cnc(F)cn4)c3CCN12 [Example 139, 2-(4-cyclopropyl-1H-imidazol-1-yl)-9-(5-fluoropyrazin-2-yl)-7,8-dihydro-[1,4]diazepino[7,1-a]isoquinolin-5(4H)-one] | 17 | 1100 | – | –
COc1cccc(C2=NCC(=O)N3CCc4c(cccc4C4CCCO4)C3=C2)c1 (stereo not shown) [Example 57, 2-(3-methoxyphenyl)-9-(tetrahydrofuran-2-yl)-7,8-dihydro-[1,4]diazepino[7,1-a]isoquinolin-5(4H)-one] | 14 | 4500 | – | –
